Source: ChEMBL document CHEMBL1201862, “PubChem BioAssay data set” (2004)
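Briefly, cells in 96-well plates were exposed to five compound concentrations for 48 h, and endpoints were estimated by linear interpolation. Abbreviation: GI50, concentration required for 50% inhibition of growth.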 Active and inactive are the calls of the source. Rule as the data show it: active = GI50 up to about 1.1 µM and inactive = higher.

Experiments:
Test in all cases: NCI anticancer screen, dose series, 48 h
[1] = test system: OVCAR-5
[2] = test system: EKVX
[3] = test system: HOP-62
[4] = test system: HCT-116
[5] = test system: MDA-N
[6] = test system: NCI-H23
[7] = test system: SK-MEL-28
[8] = test system: MDA-MB-231
[9] = test system: HOP-92
[10] = test system: DU-145
[11] = test system: A549
[12] = test system: NCI-H226
[13] = test system: HL-60
[14] = test system: Hs-578T
[15] = test system: NCI-H522
[16] = test system: ACHN
[17] = test system: MDA-MB-435
[18] = test system: IGROV-1
[19] = test system: SK-OV-3

Compound | GI50 [1] | GI50 [2] | GI50 [3] | GI50 [4] | GI50 [5] | GI50 [6] | GI50 [7] | GI50 [8] | GI50 [9] | GI50 [10] | GI50 [11] | GI50 [12] | GI50 [13] | GI50 [14] | GI50 [15] | GI50 [16] | GI50 [17] | GI50 [18] | GI50 [19]
O=C(NCCc1ccccc1)c1c(O)nc2ccccc2c1O | > 100 µM (inactive) | > 100 µM (inactive) | > 100 µM (inactive) | > 100 µM (inactive) | > 100 µM (inactive) | > 100 µM (inactive) | > 100 µM (inactive) | > 100 µM (inactive) | > 100 µM (inactive) | > 100 µM (inactive) | > 100 µM (inactive) | > 100 µM (inactive) | > 100 µM (inactive) | > 100 µM (inactive) | > 100 µM (inactive) | > 100 µM (inactive) | > 100 µM (inactive) | > 100 µM (inactive) | –
c1ccc2c(c1)C(=Nc1ccc(N=C3c4ccccc4-c4ccccc43)cc1)c1ccccc1-2 | > 100 µM (inactive) | > 100 µM (inactive) | > 100 µM (inactive) | > 100 µM (inactive) | > 100 µM (inactive) | > 100 µM (inactive) | – | > 100 µM (inactive) | > 100 µM (inactive) | > 100 µM (inactive) | > 100 µM (inactive) | > 100 µM (inactive) | 54.1 µM (inactive) | > 100 µM (inactive) | > 100 µM (inactive) | – | > 100 µM (inactive) | > 100 µM (inactive) | > 100 µM (inactive)
O=C(NNC(=S)Nc1ccccc1)c1cc(-c2ccccc2)nc2ccccc12 | 18.1 µM (inactive) | – | 15.7 µM (inactive) | 14.4 µM (inactive) | 18.2 µM (inactive) | 16.3 µM (inactive) | 16.4 µM (inactive) | 20.1 µM (inactive) | 15.6 µM (inactive) | 17 µM (inactive) | 16.7 µM (inactive) | 23.6 µM (inactive) | – | 25.1 µM (inactive) | 18.1 µM (inactive) | 27.5 µM (inactive) | 16.5 µM (inactive) | 26.7 µM (inactive) | 26.8 µM (inactive)
CC(C)[S+]1C2=C(CC(C)(C)CC2=O)[N-]c2ccccc21 (configuration not stated) | > 100 µM (inactive) | > 100 µM (inactive) | > 100 µM (inactive) | > 100 µM (inactive) | > 100 µM (inactive) | > 100 µM (inactive) | > 100 µM (inactive) | > 100 µM (inactive) | > 100 µM (inactive) | > 100 µM (inactive) | > 100 µM (inactive) | > 100 µM (inactive) | – | > 100 µM (inactive) | > 100 µM (inactive) | > 100 µM (inactive) | > 100 µM (inactive) | > 100 µM (inactive) | > 100 µM (inactive)
O=C1CSC2=NCC3(NN12)c1ccccc1-c1ccccc13 | – | > 10 µM (inactive) | > 10 µM (inactive) | > 10 µM (inactive) | > 10 µM (inactive) | > 10 µM (inactive) | > 10 µM (inactive) | > 10 µM (inactive) | > 10 µM (inactive) | > 10 µM (inactive) | > 10 µM (inactive) | > 10 µM (inactive) | > 10 µM (inactive) | > 10 µM (inactive) | > 10 µM (inactive) | > 10 µM (inactive) | > 10 µM (inactive) | > 10 µM (inactive) | > 10 µM (inactive)
CC(C)=NN/C(=N\c1ccc(Cl)cc1)NS(=O)(=O)c1ccc(Oc2cccc(Cl)c2C#N)cc1 | > 100 µM (inactive) | > 100 µM (inactive) | > 100 µM (inactive) | > 100 µM (inactive) | > 100 µM (inactive) | > 100 µM (inactive) | > 100 µM (inactive) | > 100 µM (inactive) | > 100 µM (inactive) | > 100 µM (inactive) | > 100 µM (inactive) | > 100 µM (inactive) | > 100 µM (inactive) | > 100 µM (inactive) | > 100 µM (inactive) | – | > 100 µM (inactive) | > 100 µM (inactive) | –
COC(c1ccc(C(C)(C)C)cc1)(c1ccc(C(C)(C)C)cc1)c1ccc(C(C)(C)C)cc1 | > 100 µM (inactive) | > 100 µM (inactive) | > 100 µM (inactive) | > 100 µM (inactive) | > 100 µM (inactive) | > 100 µM (inactive) | > 100 µM (inactive) | > 100 µM (inactive) | – | > 100 µM (inactive) | > 100 µM (inactive) | > 100 µM (inactive) | > 100 µM (inactive) | > 100 µM (inactive) | > 100 µM (inactive) | > 100 µM (inactive) | > 100 µM (inactive) | > 100 µM (inactive) | –
CSc1ccc(C=C2N=C(c3ccccc3)N(c3cc(C(=O)c4ccccc4)ccc3N3C(=O)/C(=C/c4ccc(SC)cc4)N=C3c3ccccc3)C2=O)cc1 | > 100 µM (inactive) | > 100 µM (inactive) | 79.8 µM (inactive) | 59.3 µM (inactive) | 93.1 µM (inactive) | – | > 100 µM (inactive) | 80.5 µM (inactive) | 80.7 µM (inactive) | 49.9 µM (inactive) | 43.5 µM (inactive) | – | 8.04 µM (inactive) | 52.7 µM (inactive) | – | 52.4 µM (inactive) | 31.8 µM (inactive) | 81.3 µM (inactive) | > 100 µM (inactive)
COc1ccc(/C=C2\c3cc(OC)c(OC)cc3CCN2C(=O)c2ccccc2)cc1OC | 55 µM (inactive) | 4.09 µM (inactive) | 37.2 µM (inactive) | 35.5 µM (inactive) | 25 µM (inactive) | 87.5 µM (inactive) | 46.7 µM (inactive) | 45.5 µM (inactive) | > 100 µM (inactive) | 55 µM (inactive) | 37.8 µM (inactive) | 37.9 µM (inactive) | 23.1 µM (inactive) | 35.6 µM (inactive) | 20.3 µM (inactive) | 53.5 µM (inactive) | 21.2 µM (inactive) | > 100 µM (inactive) | –
Cc1ccc(NC(=O)/C(Cc2cc(=O)oc3cc(O)ccc23)=N\NC(C)(C)C)cc1C | – | – | – | > 100 µM (inactive) | > 100 µM (inactive) | > 100 µM (inactive) | > 100 µM (inactive) | > 100 µM (inactive) | > 100 µM (inactive) | > 100 µM (inactive) | > 100 µM (inactive) | > 100 µM (inactive) | > 100 µM (inactive) | > 100 µM (inactive) | – | > 100 µM (inactive) | > 100 µM (inactive) | – | > 100 µM (inactive)
CCN(CC)c1ccc(/C=c2\nc(-c3ccccc3)n3c2nc2ccccc23)cc1 | 77.3 µM (inactive) | 1.67 µM (inactive) | 7.19 µM (inactive) | 3.64 µM (inactive) | 6.25 µM (inactive) | 20 µM (inactive) | 0.0231 µM (active) | 14.8 µM (inactive) | 68.7 µM (inactive) | 26.8 µM (inactive) | 6.21 µM (inactive) | 14.5 µM (inactive) | – | 24.4 µM (inactive) | – | 15 µM (inactive) | 8.71 µM (inactive) | 7.82 µM (inactive) | 24.4 µM (inactive)
COc1ccc(-c2nc(N)c(C#N)c3c2CCS(=O)(=O)c2ccc(C)cc2-3)cc1OC | 19.6 µM (inactive) | – | 33.2 µM (inactive) | 31.5 µM (inactive) | 11.7 µM (inactive) | 31.5 µM (inactive) | 55.2 µM (inactive) | 28.6 µM (inactive) | 38.5 µM (inactive) | 29 µM (inactive) | 26.4 µM (inactive) | 77.1 µM (inactive) | – | 24.6 µM (inactive) | 8.87 µM (inactive) | 48.4 µM (inactive) | 15.1 µM (inactive) | 31.6 µM (inactive) | –
O=C1Oc2ccccc2C(=O)/C1=C/N1C(=O)/C(=C/c2ccc3c(c2)OCO3)SC1=S | 16.6 µM (inactive) | 28.5 µM (inactive) | 14.6 µM (inactive) | 33.7 µM (inactive) | 24.9 µM (inactive) | 11.8 µM (inactive) | 17.3 µM (inactive) | 25.1 µM (inactive) | – | 19.1 µM (inactive) | 18.1 µM (inactive) | 11.5 µM (inactive) | 26.9 µM (inactive) | 1.32 µM (inactive) | 15.8 µM (inactive) | 11.8 µM (inactive) | 18.7 µM (inactive) | 13.6 µM (inactive) | 22.5 µM (inactive)
C/C(=N\NC(=O)CC#N)C(CN1CCCCC1)C(c1ccccc1)c1c(O)c2ccccc2oc1=O (configuration not stated) | > 100 µM (inactive) | > 100 µM (inactive) | – | 62.2 µM (inactive) | 49.8 µM (inactive) | 46.2 µM (inactive) | > 100 µM (inactive) | 35.5 µM (inactive) | 18.5 µM (inactive) | > 100 µM (inactive) | 45.7 µM (inactive) | 52.1 µM (inactive) | 27.2 µM (inactive) | 50.6 µM (inactive) | 58.2 µM (inactive) | 35 µM (inactive) | 53.2 µM (inactive) | 77.6 µM (inactive) | 64 µM (inactive)
CC(C)CCCC(C)[C@H]1CC[C@H]2n3c(nc4ccccc43)CCC[C@]12C (some centres not stated) | – | – | 20.7 µM (inactive) | 12.9 µM (inactive) | 16.2 µM (inactive) | 16.9 µM (inactive) | 18.6 µM (inactive) | 16 µM (inactive) | 17.7 µM (inactive) | 22 µM (inactive) | 20.1 µM (inactive) | 15.6 µM (inactive) | 13.6 µM (inactive) | 26.9 µM (inactive) | – | – | 19.3 µM (inactive) | 17 µM (inactive) | 17.1 µM (inactive)
CN1C(=O)c2c(c3c4ccccc4n(C4OC(CO)C(O)C(O)C4O)c3c3[nH]c4ccccc4c23)C1=O (configuration not stated) | 3.22 µM (inactive) | 3.02 µM (inactive) | 2.93 µM (inactive) | 0.718 µM (active) | 2.14 µM (inactive) | 2.59 µM (inactive) | 2.14 µM (inactive) | 1.51 µM (inactive) | 1.08 µM (active) | 2.74 µM (inactive) | 11.8 µM (inactive) | 1.77 µM (inactive) | – | 4.45 µM (inactive) | 0.321 µM (active) | 2.14 µM (inactive) | 2.29 µM (inactive) | 0.9 µM (active) | 2.92 µM (inactive)
